Like-named read-outs stand apart in the source and are kept apart here.
How the values were obtained:
[1] = test system: pDNA-PK induction in HCT116 tumour spheroids; assay: Multicellular tumour spheroid + radiation, pDNA-PK (ser2056) inhibition, immunohistochemical endpoint, HCT116; format: cell-based; conditions: Homo sapiens, 20 Gy, 20% O2
Outline: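 HCT116 spheroids (~0.5 mm) in MEM/10% FBS, 20% O2, 37° C., pre-incubated 1 h with compound (10 or 5 μM down to 3.5 nM), irradiated 20 Gy, then 2 h further with compound. Cryosections immunostained for pDNA-PK ser2056; EC50 is concentration halving radiation-induced pDNA-PK.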

[2] = Microsomal Stability Assay, mouse liver microsomes; format: in vitro ADME; conditions: for microsomal CLint at 0.1 uM: male, CD-1, pH 7.4, mouse liver microsomes 0.1 mg/mL, 0.1 uM compound; for Microsomal Stability Mouse % rem. 60 min: mouse liver microsomes
Description: (§1) Samples were then mixed and centrifuged. Supernatants were used for HPLC-MS/MS analysis. […] Peak areas corresponding to the test compound were recorded.

[3] = Microsomal Stability Assay, human liver microsomes; format: in vitro ADME; conditions: for microsomal CLint at 0.1 uM: both sexes, pH 7.4, human liver microsomes 0.1 mg/mL, 0.1 uM compound; for Microsomal Stability Human % rem. 60 min: human liver microsomes
Description: as §1

[4] = Hepatocyte Stability Assay, mouse hepatocytes; format: in vitro ADME; conditions: for hepatocyte CLint at 1 uM: male, CD-1, cryopreserved hepatocytes, pH 7.3, mouse hepatocytes 0.7 million cells per mL, 1 uM compound; for Hepatocyte Stability Mouse % rem. 120 min: mouse hepatocytes
Description: Cryopreserved mouse hepatocytes were obtained from a pool of 10 or more male CD-1 mice. Cryopreserved human hepatocytes were obtained from a pool of 10 or more donors of mixed gender. Final hepatocyte density was 0.7 million viable cells per mL and test compound concentration was 1 uM with a maximum of 0.01% DMSO. Cryopreserved hepatocytes were thawed, washed, and resuspended in Krebs-Heinslet buffer (pH 7.3). The reaction was initiated by adding the test compound into cell suspension and incubated for 0, […], 1, 1.5, and 2 h, respectively, at 37° C./5% C02. The reaction was stopped by adding acetonitrile into the incubation mixture. Samples were then mixed, transferred completely to another 96-well plate, and centrifuged. Supernatants were used for HPLC-MS/MS analysis. […] Peak areas corresponding to the test compound were recorded.

[5] = HCT-116, 2 h, spheroids, Example 8, read-out: Cell line: HCT116 Immunohistochemical endpoint pDNA-PK inhibition EC50
[6] = HCT-116, 2 hours following radiation, Example 9 Study 2, read-out: Spheroid Cell line: HCT116 Immunohistochemical endpoint pDNA-PK inhibition EC50
[7] = HCT-116, Spheroid, Cell Line: HCT115 (so in the source), 2 hours following radiation, Example 7, read-out: EC50, Immunohistochemical endpoint, pDNA-PK inhibition

Row | SMILES | EC50 [1, 5] [nM] | EC50 [1, 6] [nM] | EC50 [1, 7] [nM] | microsomal CLint at 0.1 uM [2] [µL/min/mg] | Microsomal Stability Mouse % rem. 60 min [2] | microsomal CLint at 0.1 uM [3] [µL/min/mg] | Microsomal Stability Human % rem. 60 min [3] | hepatocyte CLint at 1 uM [4] [µL/min/1e6 cells] | Hepatocyte Stability Mouse % rem. 120 min [4]
1 | CN(C)C(=O)COc1cnc(N[C@H]2CC[C@@H](Oc3nc(N4CCOCC4)cc4ncccc34)CC2)nc1 [Compound 54, N,N-Dimethyl-2-((2-(((1s,4s)-4-((7-morpholino-1,6-naphthyridin-5-yl)oxy)cyclohexyl)amino)pyrimidin-5-yl)oxy)acetamide] | 10 to 500 | 10 to 500 | 10 to 500 | < 116 | G (% remaining = 50-75%) | > 116 | E (% remaining = 0-25%) | < 8.2 | G (% remaining = 50-75%)
2 | O=C(COc1cnc(N[C@H]2CC[C@@H](Oc3nc(N4CCOCC4)cc4ncccc34)CC2)nc1)N1CCOCC1 [Compound 61, 1-Morpholino-2-((2-(((1s,4s)-4-((7-morpholino-1,6-naphthyridin-5-yl)oxy)cyclohexyl)amino)pyrimidin-5-yl)oxy)ethan-1-one] | – | 10 to 500 | 10 to 500 | < 116 | H (% remaining = 75-100%) | > 116 | F (% remaining = 25-50%) | < 8.2 | G (% remaining = 50-75%)
3 | CN1CCN(C(=O)COc2cnc(N[C@H]3CC[C@@H](Oc4nc(N5CCOCC5)cc5ncccc45)CC3)nc2)CC1 [Compound 62, 1-(4-Methylpiperazin-1-yl)-2-((2-(((1s,4s)-4-((7-morpholino-1,6-naphthyridin-5-yl)oxy)cyclohexyl)amino)pyrimidin-5-yl)oxy)ethan-1-one] | – | 500 to 1000 | 500 to 1000 | < 116 | F (% remaining = 25-50%) | < 116 | G (% remaining = 50-75%) | < 8.2 | H (% remaining = 75-100%)
4 | O=C(COc1cnc(N[C@H]2CC[C@@H](Oc3nc(N4CCOCC4)cc4ncccc34)CC2)nc1)N1CCNCC1 [Compound 63, 2-((2-(((1s,4s)-4-((7-Morpholino-1,6-naphthyridin-5-yl)oxy)cyclohexyl)amino)pyrimidin-5-yl)oxy)-1-(piperazin-1-yl)ethan-1-one] | – | 1000 to 10000 | 1000 to 10000 | > 116 | F (% remaining = 25-50%) | < 116 | H (% remaining = 75-100%) | < 8.2 | H (% remaining = 75-100%)
5 | CN(C)CCOc1cnc(N[C@H]2CC[C@@H](Oc3nc(N4CCOCC4)cc4ncccc34)CC2)nc1 [Compound 64, 5-(2-(Dimethylamino)ethoxy)-N-((1s,4s)-4-((7-morpholino-1,6-naphthyridin-5-yl)oxy)cyclohexyl)pyrimidin-2-amine] | 10 to 500 | 10 to 500 | 10 to 500 | < 116 | G (% remaining = 50-75%) | < 116 | H (% remaining = 75-100%) | < 8.2 | G (% remaining = 50-75%)
6 | NCCOc1cnc(N[C@H]2CC[C@@H](Oc3nc(N4CCOCC4)cc4ncccc34)CC2)nc1 [Compound 65, 5-(2-Aminoethoxy)-N-((1s,4s)-4-((7-morpholino-1,6-naphthyridin-5-yl)oxy)cyclohexyl)pyrimidin-2-amine] | – | 1000 to 10000 | 1000 to 10000 | < 116 | G (% remaining = 50-75%) | > 116 | G (% remaining = 50-75%) | < 8.2 | G (% remaining = 50-75%)
7 | CC(=O)NCCOc1cnc(N[C@H]2CC[C@@H](Oc3nc(N4CCOCC4)cc4ncccc34)CC2)nc1 [Compound 66] | – | 1000 to 10000 | 1000 to 10000 | < 116 | G (% remaining = 50-75%) | > 116 | F (% remaining = 25-50%) | < 8.2 | F (% remaining = 25-50%)
8 | CN1CCN(CCOc2cnc(N[C@H]3CC[C@@H](Oc4nc(N5CCOCC5)cc5ncccc45)CC3)nc2)CC1 [Compound 69, 5-(2-(4-Methylpiperazin-1-yl)ethoxy)-N-((1s,4s)-4-((7-morpholino-1,6-naphthyridin-5-yl)oxy)cyclohexyl)pyrimidin-2-amine] | – | 1000 to 10000 | 1000 to 10000 | > 116 | F (% remaining = 25-50%) | < 116 | G (% remaining = 50-75%) | < 8.2 | H (% remaining = 75-100%)
9 | CNC(=O)COc1cnc(N[C@H]2CC[C@@H](Oc3nc(N4CCOCC4)cc4ncccc34)CC2)nc1 [Compound 71, N-Methyl-2-((2-(((1s,4s)-4-((7-morpholino-1,6-naphthyridin-5-yl)oxy)cyclohexyl)amino)pyrimidin-5-yl)oxy)acetamide] | – | 10 to 500 | 10 to 500 | < 116 | G (% remaining = 50-75%) | < 116 | F (% remaining = 25-50%) | < 8.2 | G (% remaining = 50-75%)
10 | O=C(COc1cnc(N[C@H]2CC[C@@H](Oc3nc(N4CCOCC4)cc4ncccc34)CC2)nc1)N1CCC1 [Compound 75, 1-(Azetidin-1-yl)-2-((2-(((1s,4s)-4-((7-morpholino-1,6-naphthyridin-5-yl)oxy)cyclohexyl)amino)pyrimidin-5-yl)oxy)ethan-1-one] | – | 500 to 1000 | 500 to 1000 | < 116 | G (% remaining = 50-75%) | > 116 | F (% remaining = 25-50%) | < 8.2 | G (% remaining = 50-75%)
11 | CN(C)C(=O)Cn1ccc2nc(N[C@H]3CC[C@@H](Oc4nc(N5CCOCC5)cc5ncccc45)CC3)ncc21 [Compound 86, N,N-Dimethyl-2-(2-(((1s,4s)-4-((7-morpholino-1,6-naphthyridin-5-yl)oxy)cyclohexyl)amino)-5H-pyrrolo[3,2-d]pyrimidin-5-yl)acetamide] | – | 10 to 500 | 10 to 500 | < 116 | G (% remaining = 50-75%) | < 116 | G (% remaining = 50-75%) | < 8.2 | H (% remaining = 75-100%)
12 | CN(C)C(=O)Cn1c(=O)n(C2CCOCC2)c2nc(N[C@H]3CC[C@@H](Oc4nc(N5CCOCC5)cc5ncccc45)CC3)ncc21 [Compound 97, N,N-Dimethyl-2-(2-(((1s,4s)-4-((7-morpholino-1,6-naphthyridin-5-yl)oxy)cyclohexyl)amino)-8-oxo-9-(tetrahydro-2H-pyran-4-yl)-8,9-dihydro-7H-purin-7-yl)acetamide] | – | 10 to 500 | 10 to 500 | < 116 | F (% remaining = 25-50%) | > 116 | E (% remaining = 0-25%) | < 8.2 | H (% remaining = 75-100%)
13 | O=C(O)c1cnc2cc(N3CCOCC3)nc(O[C@H]3CC[C@@H](n4ccnc4)CC3)c2c1 [Compound 165, 5-(((1s,4s)-4-(1H-imidazol-1-yl)cyclohexyl)oxy)-7-morpholino-1,6-naphthyridine-3-carboxylic acid] | 10000 to 100000 | 10000 to 100000 | 10000 to 100000 | < 116 | H (% remaining = 75-100%) | – | – | < 8.2 | H (% remaining = 75-100%)
14 | O=C(NO)c1cnc2cc(N3CCOCC3)nc(O[C@H]3CC[C@@H](n4ccnc4)CC3)c2c1 [Compound 172, 5-(((1s,4s)-4-(1H-imidazol-1-yl)cyclohexyl)oxy)-N-hydroxy-7-morpholino-1,6-naphthyridine-3-carboxamide] | 1000 to 10000 | 1000 to 10000 | 1000 to 10000 | < 116 | G (% remaining = 50-75%) | – | – | > 8.2 | F (% remaining = 25-50%)

From US20240239790A1, “7-Morpholino-1,6-Naphthyridin-5-yl Derivatives and Pharmaceutical Compositions Thereof Useful as DNA-PK Inhibitor” (adMare Therapeutics Society, priority 2021, published 2024)
